Measured values: ChEMBL document CHEMBL3885881, “DrugMatrix”

Organism: Rattus norvegicus
Assay: DrugMatrix - Regimen: Daily Repeat
Type: toxicity, organism-based, Sprague-Dawley
Parameters: regimen Daily Repeat, gender Male, age 6-8 weeks
Conditions: in vivo, po, 15 mg/kg, route oral GAVAGE, dose level Low, vehicle .5 % CMC; for ABSOLUTE BASOPHIL / ABSOLUTE EOSINOPHIL / ABSOLUTE LYMPHOCYTE / ABSOLUTE MONOCYTE / ABSOLUTE SEGMENTED NEUTROPHIL / BASOPHIL / EOSINOPHIL / ERYTHROCYTE COUNT / HEMATOCRIT / HEMOGLOBIN / LEUKOCYTE COUNT / LYMPHOCYTE / MEAN CORPUSCULAR HEMOGLOBIN / MEAN CORPUSCULAR HEMOGLOBIN CONCENTRATION / MEAN CORPUSCULAR VOLUME / MONOCYTE / NEUTROPHIL / NUCLEATED RED BLOOD CELLS / PLATELET COUNT: tissue Blood; for ALANINE AMINOTRANSFERASE / ALBUMIN / ALKALINE PHOSPHATASE / ASPARTATE AMINOTRANSFERASE / BLOOD UREA NITROGEN / CARBON DIOXIDE / CHLORIDE / CHOLESTEROL / CREATINE PHOSPHOKINASE / CREATININE / GLUCOSE / LACTATE DEHYDROGENASE / LIPASE / PHOSPHORUS / POTASSIUM / SODIUM / TOTAL BILIRUBIN / TOTAL PROTEIN / URIC ACID: tissue Plasma

C[C@]12CCC(=O)C=C1CC[C@@H]1[C@@H]2CC[C@@]2(C)[C@H]1CC[C@]2(C)O [METHYLTESTOSTERONE]
ABSOLUTE BASOPHIL (72 h, time 3 day): 0 CELLS/uL | ABSOLUTE EOSINOPHIL (72 h, time 3 day): 240 CELLS/uL | ABSOLUTE LYMPHOCYTE (72 h, time 3 day): 14115 CELLS/uL | ABSOLUTE MONOCYTE (72 h, time 3 day): 60.67 CELLS/uL | ABSOLUTE SEGMENTED NEUTROPHIL (72 h, time 3 day): 1817.67 CELLS/uL | BASOPHIL (72 h, time 3 day): 0% | EOSINOPHIL (72 h, time 3 day): 1.33% | ERYTHROCYTE COUNT (72 h, time 3 day): 5.48 x10E6/uL | HEMATOCRIT (72 h, time 3 day): 33.23% | HEMOGLOBIN (72 h, time 3 day): 12.9 G/DL | LEUKOCYTE COUNT (72 h, time 3 day): 16.23 x10E3/uL | LYMPHOCYTE (72 h, time 3 day): 87% | MEAN CORPUSCULAR HEMOGLOBIN (72 h, time 3 day): 23.53 pg | MEAN CORPUSCULAR HEMOGLOBIN CONCENTRATION (72 h, time 3 day): 38.8 G/DL | MEAN CORPUSCULAR VOLUME (72 h, time 3 day): 60.73 fL | MONOCYTE (72 h, time 3 day): 0.33% | NEUTROPHIL (72 h, time 3 day): 11.33% | NUCLEATED RED BLOOD CELLS (72 h, time 3 day): 0 /100WBC | PLATELET COUNT (72 h, time 3 day): 1314.67 x10E3/uL | ALANINE AMINOTRANSFERASE (72 h, time 3 day): 47.33 u/L | ALBUMIN (72 h, time 3 day): 4.2 G/DL | ALKALINE PHOSPHATASE (72 h, time 3 day): 275.33 u/L | ASPARTATE AMINOTRANSFERASE (72 h, time 3 day): 99.33 u/L | BLOOD UREA NITROGEN (72 h, time 3 day): 18.67 mg/dL | CARBON DIOXIDE (72 h, time 3 day): 27 mmol/L | CHLORIDE (72 h, time 3 day): 103 MEQ/L | CHOLESTEROL (72 h, time 3 day): 75 mg/dL | CREATINE PHOSPHOKINASE (72 h, time 3 day): 593 u/L | CREATININE (72 h, time 3 day): 0.23 mg/dL | GLUCOSE (72 h, time 3 day): 141 mg/dL | LACTATE DEHYDROGENASE (72 h, time 3 day): 578.33 u/L | LIPASE (72 h, time 3 day): 9 u/L | PHOSPHORUS (72 h, time 3 day): 11.9 mg/dL | POTASSIUM (72 h, time 3 day): 5.93 MEQ/L | SODIUM (72 h, time 3 day): 145.33 MEQ/L | TOTAL BILIRUBIN (72 h, time 3 day): 0.2 mg/dL | TOTAL PROTEIN (72 h, time 3 day): 5.8 G/DL | URIC ACID (72 h, time 3 day): 1.47 mg/dL | ABSOLUTE BASOPHIL (120 h, time 5 day): 0 CELLS/uL | ABSOLUTE EOSINOPHIL (120 h, time 5 day): 157.67 CELLS/uL | ABSOLUTE LYMPHOCYTE (120 h, time 5 day): 14288.33 CELLS/uL | ABSOLUTE MONOCYTE (120 h, time 5 day): 45 CELLS/uL | ABSOLUTE SEGMENTED NEUTROPHIL (120 h, time 5 day): 1275.67 CELLS/uL | BASOPHIL (120 h, time 5 day): 0% | EOSINOPHIL (120 h, time 5 day): 1% | ERYTHROCYTE COUNT (120 h, time 5 day): 5.89 x10E6/uL | HEMATOCRIT (120 h, time 5 day): 35.43% | HEMOGLOBIN (120 h, time 5 day): 13.6 G/DL | LEUKOCYTE COUNT (120 h, time 5 day): 15.77 x10E3/uL | LYMPHOCYTE (120 h, time 5 day): 90.33% | MEAN CORPUSCULAR HEMOGLOBIN (120 h, time 5 day): 23.1 pg | MEAN CORPUSCULAR HEMOGLOBIN CONCENTRATION (120 h, time 5 day): 38.4 G/DL | MEAN CORPUSCULAR VOLUME (120 h, time 5 day): 60.17 fL | MONOCYTE (120 h, time 5 day): 0.33% | NEUTROPHIL (120 h, time 5 day): 8.33% | NUCLEATED RED BLOOD CELLS (120 h, time 5 day): 0 /100WBC | PLATELET COUNT (120 h, time 5 day): 1359 x10E3/uL | ALANINE AMINOTRANSFERASE (120 h, time 5 day): 52.33 u/L | ALBUMIN (120 h, time 5 day): 4.13 G/DL | ALKALINE PHOSPHATASE (120 h, time 5 day): 322.67 u/L | ASPARTATE AMINOTRANSFERASE (120 h, time 5 day): 91 u/L | BLOOD UREA NITROGEN (120 h, time 5 day): 13.67 mg/dL | CARBON DIOXIDE (120 h, time 5 day): 26.67 mmol/L | CHLORIDE (120 h, time 5 day): 103 MEQ/L | CHOLESTEROL (120 h, time 5 day): 77.33 mg/dL | CREATINE PHOSPHOKINASE (120 h, time 5 day): 245 u/L | CREATININE (120 h, time 5 day): 0.17 mg/dL | GLUCOSE (120 h, time 5 day): 149.33 mg/dL | LACTATE DEHYDROGENASE (120 h, time 5 day): 232.33 u/L | LIPASE (120 h, time 5 day): 9.33 u/L | PHOSPHORUS (120 h, time 5 day): 12.6 mg/dL | POTASSIUM (120 h, time 5 day): 6.3 MEQ/L | SODIUM (120 h, time 5 day): 143.83 MEQ/L | TOTAL BILIRUBIN (120 h, time 5 day): 0.17 mg/dL | TOTAL PROTEIN (120 h, time 5 day): 5.87 G/DL | URIC ACID (120 h, time 5 day): 1.73 mg/dL
